Values belong to the compound of their own block, whether it stands above or below them.
How the values were obtained:
[1] = Key water activity research, crystal form A and hydrate crystal form E; format: physicochemical; conditions: room temperature
[2] = AMES experiments; format: cell-based
[3] = Suspension competition of anhydrous crystal forms A/G; format: physicochemical
Procedure: In order to study the stability relationship between other anhydrous crystal forms (crystal forms A/G), suspension competition experiments were conducted at room temperature and 60° C. using ACN and EtOAc as solvents.

[4] = Room temperature storage of crystal form F (XRPD); format: physicochemical; conditions: room temperature (18-20° C./45~75% RH), about 3 days

The crystal form obtained (key water activity) ([1]; Water activity(Aw) 0, Acetone/H2O 1000:0 v/v): Crystal form A | The crystal form obtained (key water activity) ([1]; Water activity(Aw) 0.2, Acetone/H2O 984:16 v/v): Crystal form A | The crystal form obtained (key water activity) ([1]; Water activity(Aw) 0.4, Acetone/H2O 948:52 v/v): Crystal form A | The crystal form obtained (key water activity) ([1]; Water activity(Aw) 0.6, Acetone/H2O 857:143 v/v): Crystal form A | The crystal form obtained (key water activity) ([1]; Water activity(Aw) 0.8, Acetone/H2O 604:396 v/v): Crystal form A | The crystal form obtained (key water activity) ([1]; Water activity(Aw) 1.0, Acetone/H2O 0:1000 v/v): Crystal form E
SMILES: O=C1CO[C@H](c2cn(-c3ccc(Br)cc3)nc2-c2ccc(F)cc2)N1CCc1ccc2[nH]c(=O)[nH]c2c1

SMILES: Nc1ccc(CCN2C(=O)COC2c2cn(-c3ccc(Br)cc3)nc2-c2ccc(F)cc2)cc1N (centres unmarked) [2-(1-(4-bromophenyl)-3-(4-fluorophenyl)-1H-pyrazole-4-yl)-3-(3,4-diaminophenethyl) oxazolidin-4-one]
AMES experiments [2]: positive

The crystal form obtained (suspension competition) ([3]; ACN, 60° C., test D220-PS-14-A3): Crystal form A | The crystal form obtained (suspension competition) ([3]; ACN, Room temperature(~18° C.), test D220-PS-14-A1): Crystal form A | The crystal form obtained (suspension competition) ([3]; EtOAc, 60° C., test D220-PS-14-A4): Crystal form A | The crystal form obtained (suspension competition) ([3]; EtOAc, Room temperature(~18° C.), test D220-PS-14-A2): Crystal form A
SMILES: O=C1CO[C@H](c2cn(-c3ccc(Br)cc3)nc2-c2ccc(F)cc2)N1CCc1ccc2[nH]c(=O)[nH]c2c1 [Crystal form A/G]

SMILES: Nc1ccc(CCN2C(=O)COC2c2cn(-c3ccc(Br)cc3)nc2-c2ccc(F)cc2)cc1[N+](=O)[O-] (centres unmarked) [3-(4-amino-3-nitrophenylethyl)-2-(1-(4-bromophenyl)-3-(4-fluorophenyl)-1H-pyrazole-4-yl) oxazolidin-4-one]
AMES experiments [2]: positive

SMILES: CC(=O)Nc1ccc(CCN2C(=O)COC2c2cn(-c3ccc(Br)cc3)nc2-c2ccc(F)cc2)cc1[N+](=O)[O-] (centres unmarked) [3-(4-acetylamino-3-nitrophenylethyl)-2-(3-(4-fluorophenyl)-1-(4-bromophenyl)-1H-pyrazole-4-yl) oxazolidin-4-one]
AMES experiments [2]: positive

crystal form after being placed at room temperature [4]: transformed into crystal form E
SMILES: O=C1CO[C@H](c2cn(-c3ccc(Br)cc3)nc2-c2ccc(F)cc2)N1CCc1ccc2[nH]c(=O)[nH]c2c1 [Crystal form F]

Source: patent publication US12686674B2, “Crystal form of compound represented by formula I, and preparation therefor and application thereof” (Shanghai Zhimeng Biopharma, Inc., priority 2021, dated 2026)
